Reference: patent publication US9439903B2, “Process for the preparation of amorphous imatinib mesylate” (CADILA HEALTHCARE LIMITED, priority 2012, dated 2016)
Counter-ions that a name gives are not always drawn.

Tests used:
Format in all cases: physicochemical
[1] = Stability of amorphous imatinib mesylate, real time storage 25° C./60% RH; conditions: 25° C. ± 2° C./60% ± 5% RH (Real time)
Procedure: (§1) The amorphous imatinib mesylate having less than 2.0% water, in particular, having less than 1.7% water, more particularly, water content is in the range of 0.7% to 1.7% as manufactured by the process of the present invention was subjected to stability for at least 6 months at 25° C./60% RH or at about 40° C./75% RH. The following Table-1 and Tabel-2 discloses the stability conditions and results.

[2] = Stability of amorphous imatinib mesylate, accelerated storage 40° C./75% RH; conditions: 40° C. ± 2° C./75% ± 5% RH (Accelerated)
Procedure: as §1

[3] = Hygroscopicity as per Ph. Eur. general chapter 5.11
Text: In one general aspect, the amorphous imatinib mesylate was subjected to study the hygroscopicity as per the Ph. Eur. general chapter 5.11.

Cc1ccc(NC(=O)c2ccc(CN3CCN(C)CC3)cc2)cc1Nc1nccc(-c2cccnc2)n1 [amorphous imatinib mesylate, Imatinib mesylate]
Description ([1]; 1 Month): Pale yellow | Related substance (%) by HPLC: Impurity-AMPPP ([1]; 1 Month): BQL | Related substance (%) by HPLC: Impurity-MPMBA ([1]; 1 Month): BQL | Related substance (%) by HPLC: Impurity-Methyl Ester analouge ([1]; 1 Month): BQL | Related substance (%) by HPLC: Impurity-NMPPP ([1]; 1 Month): BQL | Related substance (%) by HPLC: Single largest unknown Imp ([1]; 1 Month): 0.03% | Related substance (%) by HPLC: Total Impurities ([1]; 1 Month): 0.04% | Water (%) ([1]; 1 Month): 0.72% | X-Ray Diffraction ([1]; 1 Month): Amorphous | Description ([1]; 2 Months): Pale yellow | Related substance (%) by HPLC: Impurity-AMPPP ([1]; 2 Months): BQL | Related substance (%) by HPLC: Impurity-MPMBA ([1]; 2 Months): BQL | Related substance (%) by HPLC: Impurity-Methyl Ester analouge ([1]; 2 Months): BQL | Related substance (%) by HPLC: Impurity-NMPPP ([1]; 2 Months): BQL | Related substance (%) by HPLC: Single largest unknown Imp ([1]; 2 Months): 0.03% | Related substance (%) by HPLC: Total Impurities ([1]; 2 Months): 0.04% | Water (%) ([1]; 2 Months): 0.64% | X-Ray Diffraction ([1]; 2 Months): Amorphous | Description ([1]; 3 Months): Pale yellow | Related substance (%) by HPLC: Impurity-AMPPP ([1]; 3 Months): BQL | Related substance (%) by HPLC: Impurity-MPMBA ([1]; 3 Months): BQL | Related substance (%) by HPLC: Impurity-Methyl Ester analouge ([1]; 3 Months): BQL | Related substance (%) by HPLC: Impurity-NMPPP ([1]; 3 Months): BQL | Related substance (%) by HPLC: Single largest unknown Imp ([1]; 3 Months): 0.03% | Related substance (%) by HPLC: Total Impurities ([1]; 3 Months): 0.05% | Water (%) ([1]; 3 Months): 0.65% | X-Ray Diffraction ([1]; 3 Months): Amorphous | Description ([1]; 6 Months): Pale yellow | Related substance (%) by HPLC: Impurity-AMPPP ([1]; 6 Months): BQL | Related substance (%) by HPLC: Impurity-MPMBA ([1]; 6 Months): BQL | Related substance (%) by HPLC: Impurity-Methyl Ester analouge ([1]; 6 Months): BQL | Related substance (%) by HPLC: Impurity-NMPPP ([1]; 6 Months): BQL | Related substance (%) by HPLC: Single largest unknown Imp ([1]; 6 Months): 0.03% | Related substance (%) by HPLC: Total Impurities ([1]; 6 Months): 0.06% | Water (%) ([1]; 6 Months): 0.69% | X-Ray Diffraction ([1]; 6 Months): Amorphous | Description ([2]; 1 Month): Pale yellow | Related substance (%) by HPLC: Impurity-AMPPP ([2]; 1 Month): BQL | Related substance (%) by HPLC: Impurity-MPMBA ([2]; 1 Month): BQL | Related substance (%) by HPLC: Impurity-Methyl Ester analouge ([2]; 1 Month): BQL | Related substance (%) by HPLC: Impurity-NMPPP ([2]; 1 Month): BQL | Related substance (%) by HPLC: Single largest unknown Imp ([2]; 1 Month): 0.03% | Related substance (%) by HPLC: Total Impurities ([2]; 1 Month): 0.04% | Water (%) ([2]; 1 Month): 0.88% | X-Ray Diffraction ([2]; 1 Month): Amorphous | Description ([2]; 2 Month): Pale yellow | Related substance (%) by HPLC: Impurity-AMPPP ([2]; 2 Month): BQL | Related substance (%) by HPLC: Impurity-MPMBA ([2]; 2 Month): BQL | Related substance (%) by HPLC: Impurity-Methyl Ester analouge ([2]; 2 Month): BQL | Related substance (%) by HPLC: Impurity-NMPPP ([2]; 2 Month): BQL | Related substance (%) by HPLC: Single largest unknown Imp ([2]; 2 Month): 0.03% | Related substance (%) by HPLC: Total Impurities ([2]; 2 Month): 0.05% | Water (%) ([2]; 2 Month): 0.89% | X-Ray Diffraction ([2]; 2 Month): Amorphous | Description ([2]; 3 Month): Pale yellow | Related substance (%) by HPLC: Impurity-AMPPP ([2]; 3 Month): BQL | Related substance (%) by HPLC: Impurity-MPMBA ([2]; 3 Month): BQL | Related substance (%) by HPLC: Impurity-Methyl Ester analouge ([2]; 3 Month): BQL | Related substance (%) by HPLC: Impurity-NMPPP ([2]; 3 Month): BQL | Related substance (%) by HPLC: Single largest unknown Imp ([2]; 3 Month): 0.03% | Related substance (%) by HPLC: Total Impurities ([2]; 3 Month): 0.07% | Water (%) ([2]; 3 Month): 0.79% | X-Ray Diffraction ([2]; 3 Month): Amorphous | Description ([2]; 6 Month): Pale yellow | Related substance (%) by HPLC: Impurity-AMPPP ([2]; 6 Month): BQL | Related substance (%) by HPLC: Impurity-MPMBA ([2]; 6 Month): BQL | Related substance (%) by HPLC: Impurity-Methyl Ester analouge ([2]; 6 Month): BQL | Related substance (%) by HPLC: Impurity-NMPPP ([2]; 6 Month): BQL | Related substance (%) by HPLC: Single largest unknown Imp ([2]; 6 Month): 0.03% | Related substance (%) by HPLC: Total Impurities ([2]; 6 Month): 0.07% | Water (%) ([2]; 6 Month): 0.95% | X-Ray Diffraction ([2]; 6 Month): Amorphous | hygroscopicity [3]: very hygroscopic
